# Test system: filaggrin
# Test: Immunofluorescent staining and imaging of filaggrin in artificial skin
# Format: cell-based
# Conditions: artificial skin (AmoreReskin) surface treated for 4 days, FIG. 3
# Method: The skin moisturizing effect of Example 1 and Example 4 was evaluated by immunofluorescent staining and imaging of filaggrin which is known as an important skin moisturizing factor.
# The surface of artificial skin (AmoreReskin™) was treated with 2 ppm ceramide PC 104, Example 1 and Example 4 for 4 days and then immunofluorescent staining was conducted. The immunofluorescent staining was conducted as follows.
# i. Artificial skin is immersed in OCT solution (optimal cutting temperature, Tissue Tek) and stored at −70° C.
# ii. The artificial skin is prepared into 10-μm thick sections using a cryotome and fixed on a slide.
# iii. Lines are drawn around the artificial skin sections using a PAP pen.
# iv. The slide is dried at room temperature for at least 8 hours.
# v. The artificial skin sections are washed with PBS and […] in OCT solution.
# vi. The artificial skin sections are treated with a blocking solution (1% BSA in PBS) for 30 minutes.
# vii. The sections are treated with anti-filaggrin antibody (ab24584, Abcam) for 2 hours.
# viii. The sections are treated with Texas Red anti-rabbit antibody (T6391, Life technologies) diluted to 1:200 in a blocking solution for 1 hour.
# ix. The sections are stained with DAPI (4′,6-diamidino-2-phenylindole) for 5 minutes.
# x. The sections are washed with PBS 3 times.
# xi. […]
substance,measurement,value
"3β,23,28-Trihydroxy-12-oleanene 23-caffeate [Example 1]",filaggrin protein (immunofluorescence),significantly increased

# From patent US20200297601A1, “COMPOSITION FOR SKIN MOISTURIZATION OR SKIN WHITENING, CONTAINING PENTACYCLIC TRITERPENE CAFFEIC ACID ESTERS” (AMOREPACIFIC CORPORATION, priority 2016, published 2020)
